Laboratory results published in patent US20020137929A1, “1 - (3-heterocyclylphenyl) isothiourea, -isourea, -guanidine and -amidine herbicidal agents” (Intellectual Property Department, BASF Aktiengesellschaft, priority 1998, published 2002).

Columns and labels:
[1] = test system: ABUTH (Velvetleaf); assay: Postemergence herbicidal evaluation; format: in vivo, Abutilon theophrasti; details: postemergence
Procedure, shortened: (§1)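 Scores (0–9) reflect plant stand, vigor, malformation, size, chlorosis and general appearance relative to control, read 4 to 5 weeks after treatment and averaged where tests were repeated. Application: about 0.0156–0.500 kg/ha sprayed at 40 psi onto two-week seedlings.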

[2] = test system: AMBEL (Ragweed, Common); assay: Postemergence herbicidal evaluation; format: in vivo, Ambrosia artemisifolia; details: postemergence
Procedure, shortened: as §1

[3] = test system: IPOHE (Morningglory, Ivyleaf); assay: Postemergence herbicidal evaluation; format: in vivo, Ipomoea hederacea; details: postemergence
Procedure, shortened: as §1

[4] = test system: ECHCG (Barnyardgrass); assay: Postemergence herbicidal evaluation; format: in vivo, Echinochloa crus-galli; details: postemergence
Procedure, shortened: as §1

[5] = test system: SETVI (Foxtail, Green); assay: Postemergence herbicidal evaluation; format: in vivo, Setaria viridis; details: postemergence
Procedure, shortened: as §1

[6] = test system: GLXMAW (Soybean, Williams); assay: Postemergence herbicidal evaluation; format: in vivo, Glycine max, (L.) Merr. cv Williams; details: postemergence
Procedure, shortened: as §1

[7] = test system: TRZAWR (Wheat, Winter, cv Riband); assay: Postemergence herbicidal evaluation; format: in vivo, Triticum aestivum; details: postemergence
Procedure, shortened: as §1

[8] = test system: CASOB (Sicklepod); assay: Preemergence herbicidal evaluation; format: in vivo, Cassia obtusifolia; details: rated 4-5 weeks after treatment
From the text: (§2) Results of herbicide evaluation are expressed on a rating scale (0-9). The scale is based upon a visual observation of plant stand, vigor, malformation, size, chlorosis and overall plant appearance as compared with a control.
(§3) The preemergence herbicidal activity of the test compounds of the present invention is exemplified by the following tests in which the seeds of a variety of monocotyledonous and dicotyledonous plants are separately mixed with potting soil and planted on top of approximately one inch of soil in separate pint cups. After planting, the cups are sprayed with the selected aqueous acetone solution containing test compound in sufficient quantity to provide the equivalent of about 0.0156 to 0.500 kg per hectare of test compound per cup. The treated cups are then placed on greenhouse benches, watered and cared for in accordance with conventional greenhouse procedures. From four to five weeks after treatment, the tests are terminated and each cup is examined and rated according to the rating system provided in Example 37.
(§4) The compounds evaluated are reported by compound number given in Example 37.

[9] = test system: CHEAL (Lambsquarters, Common); assay: Preemergence herbicidal evaluation; format: in vivo, Chenopodium album; details: rated 4-5 weeks after treatment
From the text: as §2, §3, §4

[10] = test system: GALAP (Galium); assay: Preemergence herbicidal evaluation; format: in vivo, Galium aparine; details: rated 4-5 weeks after treatment
Procedure, shortened: (§5)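 Rating at 4–5 wk post-spray on a 0–9 visual scale vs control. Application: aqueous acetone, ~0.0156–0.500 kg/ha, to soil surface after seeding, preemergence.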

[11] = test system: IPOHE (Morningglory, Ivyleaf); assay: Preemergence herbicidal evaluation; format: in vivo, Ipomoea hederacea; details: rated 4-5 weeks after treatment
Procedure, shortened: as §5

[12] = test system: ECHCG (Barnyardgrass); assay: Preemergence herbicidal evaluation; format: in vivo, Echinochloa crus-galli; details: rated 4-5 weeks after treatment
From the text: as §2, §3, §4

[13] = test system: ZEAMX (Corn, Field); assay: Preemergence herbicidal evaluation; format: in vivo, Zea mays; details: rated 4-5 weeks after treatment
From the text: as §2, §3, §4

Q: For COCCOC(=O)CN1C(=O)CSC1=Nc1cc(-n2c(=O)cc(C(F)(F)F)n(C)c2=O)c(F)cc1Cl [Compound 107, 2-Methoxyethyl 2-{{2-chloro-5-[3,6-dihydro-3-methyl-2,6-dioxo-4-(trifluoromethyl)-1(2H)-pyrimidinyl]-4-fluorophenyl}imino}-4-oxo-3-thiazolidineacetate], which “herbicidal rating ABUTH” value ([1]; rate 0.0158 kg/ha) is on record?
A: The value was 9.0.

Q: What about the “herbicidal rating ABUTH” value ([1]; rate 0.0315 kg/ha) of the same compound?
A: Its value is 7.0.

Q: And the “herbicidal rating ABUTH” value ([1]; rate 0.0630 kg/ha)?
A: Its value is 9.0.

Q: What about the “herbicidal rating AMBEL” value ([2]; rate 0.0158 kg/ha) of the same compound?
A: The value was 2.0.

Q: And the “herbicidal rating AMBEL” value ([2]; rate 0.0315 kg/ha)?
A: The value was 2.0.

Q: What about the “herbicidal rating AMBEL” value ([2]; rate 0.0630 kg/ha) of the same compound?
A: The value was 2.0.

Q: What about the “herbicidal rating IPOHE” value ([3]; rate 0.0158 kg/ha) of the same compound?
A: Its value is 9.0.

Q: What about the “herbicidal rating IPOHE” value ([3]; rate 0.0315 kg/ha) of the same compound?
A: Its value is 7.0.

Q: And the “herbicidal rating IPOHE” value ([3]; rate 0.0630 kg/ha)?
A: The value was 9.0.

Q: And the “herbicidal rating ECHCG” value ([4]; rate 0.0158 kg/ha)?
A: Its value is 1.0.

Q: And the “herbicidal rating ECHCG” value ([4]; rate 0.0315 kg/ha)?
A: The value was 1.0.

Q: What about the “herbicidal rating ECHCG” value ([4]; rate 0.0630 kg/ha) of the same compound?
A: The value was 3.0.

Q: And the “herbicidal rating SETVI” value ([5]; rate 0.0158 kg/ha)?
A: Its value is 1.0.

Q: And the “herbicidal rating SETVI” value ([5]; rate 0.0315 kg/ha)?
A: The value was 9.0.

Q: And the “herbicidal rating SETVI” value ([5]; rate 0.0630 kg/ha)?
A: The value was 9.0.

Q: And the “herbicidal rating GLXMAW” value ([6]; rate 0.0158 kg/ha)?
A: Its value is 4.5.

Q: And the “herbicidal rating GLXMAW” value ([6]; rate 0.0315 kg/ha)?
A: Its value is 5.0.

Q: What about the “herbicidal rating GLXMAW” value ([6]; rate 0.0630 kg/ha) of the same compound?
A: Its value is 5.5.

Q: What about the “herbicidal rating TRZAWR” value ([7]; rate 0.0158 kg/ha) of the same compound?
A: Its value is 2.0.

Q: And the “herbicidal rating TRZAWR” value ([7]; rate 0.0315 kg/ha)?
A: The value was 3.0.

Q: What about the “herbicidal rating TRZAWR” value ([7]; rate 0.0630 kg/ha) of the same compound?
A: Its value is 5.0.

Q: And the “Preemergence herbicidal rating CASOB” value ([8]; rate 0.0313 kg/ha)?
A: The value was 0.0.

Q: What about the “Preemergence herbicidal rating CASOB” value ([8]; rate 0.0625 kg/ha) of the same compound?
A: Its value is 0.0.

Q: What about the “Preemergence herbicidal rating CASOB” value ([8]; rate 0.1250 kg/ha) of the same compound?
A: Its value is 0.0.

Q: What about the “Preemergence herbicidal rating CASOB” value ([8]; rate 0.2500 kg/ha) of the same compound?
A: Its value is 1.0.

Q: And the “Preemergence herbicidal rating CHEAL” value ([9]; rate 0.0625 kg/ha)?
A: The value was 6.0.

Q: What about the “Preemergence herbicidal rating CHEAL” value ([9]; rate 0.1250 kg/ha) of the same compound?
A: Its value is 9.0.

Q: And the “Preemergence herbicidal rating CHEAL” value ([9]; rate 0.2500 kg/ha)?
A: The value was 9.0.

Q: And the “Preemergence herbicidal rating GALAP” value ([10]; rate 0.0313 kg/ha)?
A: Its value is 1.0.

Q: And the “Preemergence herbicidal rating GALAP” value ([10]; rate 0.0625 kg/ha)?
A: Its value is 1.0.

Q: What about the “Preemergence herbicidal rating GALAP” value ([10]; rate 0.1250 kg/ha) of the same compound?
A: The value was 7.0.

Q: And the “Preemergence herbicidal rating GALAP” value ([10]; rate 0.2500 kg/ha)?
A: Its value is 7.0.

Q: What about the “Preemergence herbicidal rating IPOHE” value ([11]; rate 0.0313 kg/ha) of the same compound?
A: The value was 0.0.

Q: And the “Preemergence herbicidal rating IPOHE” value ([11]; rate 0.0625 kg/ha)?
A: Its value is 0.0.

Q: What about the “Preemergence herbicidal rating IPOHE” value ([11]; rate 0.1250 kg/ha) of the same compound?
A: Its value is 1.0.

Q: What about the “Preemergence herbicidal rating IPOHE” value ([11]; rate 0.2500 kg/ha) of the same compound?
A: The value was 7.0.

Q: What about the “Preemergence herbicidal rating ECHCG” value ([12]; rate 0.0313 kg/ha) of the same compound?
A: The value was 0.0.

Q: And the “Preemergence herbicidal rating ECHCG” value ([12]; rate 0.0625 kg/ha)?
A: The value was 0.0.

Q: And the “Preemergence herbicidal rating ECHCG” value ([12]; rate 0.1250 kg/ha)?
A: Its value is 0.0.

Q: What about the “Preemergence herbicidal rating ECHCG” value ([12]; rate 0.2500 kg/ha) of the same compound?
A: The value was 1.0.

Q: And the “Preemergence herbicidal rating ZEAMX” value ([13]; rate 0.0313 kg/ha)?
A: The value was 0.0.

Q: What about the “Preemergence herbicidal rating ZEAMX” value ([13]; rate 0.0625 kg/ha) of the same compound?
A: The value was 0.0.

Q: And the “Preemergence herbicidal rating ZEAMX” value ([13]; rate 0.1250 kg/ha)?
A: Its value is 1.0.

Q: And the “Preemergence herbicidal rating ZEAMX” value ([13]; rate 0.2500 kg/ha)?
A: Its value is 4.0.

Q: Which results are given for CCCCOC(=O)CN1C(=O)CSC1=Nc1cc(-n2c(=O)cc(C(F)(F)F)n(C)c2=O)c(F)cc1Cl [Compound 111]?
A: herbicidal rating ABUTH ([1]; rate 0.0158 kg/ha): 7.0; herbicidal rating ABUTH ([1]; rate 0.0315 kg/ha): 9.0; herbicidal rating ABUTH ([1]; rate 0.0630 kg/ha): 9.0; herbicidal rating AMBEL ([2]; rate 0.0158 kg/ha): 4.0; herbicidal rating AMBEL ([2]; rate 0.0315 kg/ha): 6.0; herbicidal rating AMBEL ([2]; rate 0.0630 kg/ha): 9.0; herbicidal rating IPOHE ([3]; rate 0.0158 kg/ha): 4.0; herbicidal rating IPOHE ([3]; rate 0.0315 kg/ha): 9.0; herbicidal rating IPOHE ([3]; rate 0.0630 kg/ha): 9.0; herbicidal rating ECHCG ([4]; rate 0.0158 kg/ha): 3.0; herbicidal rating ECHCG ([4]; rate 0.0315 kg/ha): 4.0; herbicidal rating ECHCG ([4]; rate 0.0630 kg/ha): 9.0; herbicidal rating SETVI ([5]; rate 0.0158 kg/ha): 1.0; herbicidal rating SETVI ([5]; rate 0.0315 kg/ha): 9.0; herbicidal rating SETVI ([5]; rate 0.0630 kg/ha): 9.0; herbicidal rating GLXMAW ([6]; rate 0.0158 kg/ha): 6.0; herbicidal rating GLXMAW ([6]; rate 0.0315 kg/ha): 6.0; herbicidal rating GLXMAW ([6]; rate 0.0630 kg/ha): 6.0; herbicidal rating TRZAWR ([7]; rate 0.0158 kg/ha): 2.5; herbicidal rating TRZAWR ([7]; rate 0.0315 kg/ha): 4.5; herbicidal rating TRZAWR ([7]; rate 0.0630 kg/ha): 5.5; Preemergence herbicidal rating CASOB ([8]; rate 0.0156 kg/ha): 0.0; Preemergence herbicidal rating CASOB ([8]; rate 0.0313 kg/ha): 0.0; Preemergence herbicidal rating CASOB ([8]; rate 0.0625 kg/ha): 1.0; Preemergence herbicidal rating CASOB ([8]; rate 0.1250 kg/ha): 1.0; Preemergence herbicidal rating CASOB ([8]; rate 0.2500 kg/ha): 9.0; Preemergence herbicidal rating CHEAL ([9]; rate 0.0313 kg/ha): 0.0; Preemergence herbicidal rating CHEAL ([9]; rate 0.0625 kg/ha): 9.0; Preemergence herbicidal rating CHEAL ([9]; rate 0.1250 kg/ha): 9.0; Preemergence herbicidal rating CHEAL ([9]; rate 0.2500 kg/ha): 9.0; Preemergence herbicidal rating GALAP ([10]; rate 0.0156 kg/ha): 0.0; Preemergence herbicidal rating GALAP ([10]; rate 0.0313 kg/ha): 0.0; Preemergence herbicidal rating GALAP ([10]; rate 0.0625 kg/ha): 0.0; Preemergence herbicidal rating GALAP ([10]; rate 0.1250 kg/ha): 6.0; Preemergence herbicidal rating GALAP ([10]; rate 0.2500 kg/ha): 7.0; Preemergence herbicidal rating IPOHE ([11]; rate 0.0156 kg/ha): 0.0; Preemergence herbicidal rating IPOHE ([11]; rate 0.0313 kg/ha): 0.0; Preemergence herbicidal rating IPOHE ([11]; rate 0.0625 kg/ha): 0.0; Preemergence herbicidal rating IPOHE ([11]; rate 0.1250 kg/ha): 9.0; Preemergence herbicidal rating IPOHE ([11]; rate 0.2500 kg/ha): 7.0; Preemergence herbicidal rating ECHCG ([12]; rate 0.0156 kg/ha): 0.0; Preemergence herbicidal rating ECHCG ([12]; rate 0.0313 kg/ha): 0.0; Preemergence herbicidal rating ECHCG ([12]; rate 0.0625 kg/ha): 0.0; Preemergence herbicidal rating ECHCG ([12]; rate 0.1250 kg/ha): 0.0; Preemergence herbicidal rating ECHCG ([12]; rate 0.2500 kg/ha): 4.0; Preemergence herbicidal rating ZEAMX ([13]; rate 0.0156 kg/ha): 0.0; Preemergence herbicidal rating ZEAMX ([13]; rate 0.0313 kg/ha): 0.0; Preemergence herbicidal rating ZEAMX ([13]; rate 0.0625 kg/ha): 0.0; Preemergence herbicidal rating ZEAMX ([13]; rate 0.1250 kg/ha): 4.0; Preemergence herbicidal rating ZEAMX ([13]; rate 0.2500 kg/ha): 4.0
